Source: article PMC5667507, “A novel ^18F-labelled high affinity agent for PET imaging of the translocator protein” (Chemical Science, 2015)

Tested on: TSPO
Experiment: Ex vivo autoradiography, U87MG-Luc2 orthotopic glioma bearing mice
Format: in vivo, mouse
Method: To investigate the behavior of [^18F]-AB5186 6 in vivo, ex vivo autoradiography was performed using mice bearing a U87MG-Luc2 orthotopic model of human glioblastoma. Animals were pre-treated with either vehicle (n = 4) or 1 mg kg^–1 unlabelled PK11195 (n = 4) administered intravenously 10 min prior to [^18F]-AB5186 6 intravenous injection. Animals were killed and brains were removed 20 min after the radiotracer was given and frozen. Cryostat sections were then used to generate autoradiograms. […] The non-tumour bearing contralateral side of the brain lacked proliferating cells and minimal TSPO expression and immunolabelled microglia were visible (data not shown). Under normal circumstances microglia express low levels of TSPO in the brain. […]
temperature. Non-specific binding was determined in adjacent sections by incubating with [18F]- AB5186 6 in the presence of 10 µM PK11195 (Tocris, UK). […]
Following this, the tissues were washed with 0.1% Tween® 20 in TBS (2 × 5 min) and a secondary one hour incubation at room temperature was performed using Dako horseradish-peroxidase labelled anti-mouse or anti-rabbit polymers. The sections were once again washed using 0.1% Tween® 20 in TBS (2 × 5 min) and the presence of antibody was detected using the 3,3’- diaminobenzidine chromagen solution diluted in Dako DAB+ substrate buffer. […]

`CCN(CC)C(=O)c1nc2ccccc2c(-c2ccccc2)c1C[18F]` [[^18F]-AB5186 6] was tested, and the “binding (tumour to contralateral optical density ratio) after PK11195 blockade” value (1 mg kg^-1 unlabelled PK11195 i.v. 10 min before tracer, P = 0.0002) was “significantly reduced” and the “total binding, tumour tissue compared to contralateral region” value (ex vivo autoradiography, vehicle pre-treatment, brains removed 20 min after tracer i.v.) was “substantially higher”.
